According to US20240368163A1, “COMPOUNDS AND METHODS FOR MODULATING SPLICING” (REMIX THERAPEUTICS INC., priority 2021, published 2024):
Read-outs that look alike come from different tables or passages of the source.

Assays:
Assay type in all cases: cell-based, human
[1] = tested on: MYB; experiment: Splicing RT-qPCR assay, MYB mRNA canonical junction (CJ) and alternative junction (AJ); details: Homo sapiens; for AC50: increase in AJ mRNA
Protocol: (§1) Compounds described herein were used to modulate RNA transcript abundance in cells. The expression of a target mRNA was measured by detecting the formation of an exon-exon junction in the canonical transcript (CJ). A compound mediated exon-inclusion event was detected by observing an increase in formation of a new junction with an alternative exon (AJ). Real-time qPCR assays were used to detect these splicing switches and interrogate the potency of various compounds towards different target genes. A high-throughput real time quantitative PCR (RT-qPCR) assay was developed to measure these two isoforms of the mRNA (CJ and AJ) for exemplary genes, such as HTT, SMN2, and MYB, together with a control housekeeping gene, GAPDH or GUSB or PPIA, used for normalization. Briefly, the A673 or K562 cell line was treated with various compounds described herein (e.g., compounds of Formula (I)). After treatment, the levels of the HTT, MYB, or SMN2 mRNA targets were determined from each sample of cell lysate by cDNA synthesis followed by qPCR.
(§2) The A673 cell line was cultured in DMEM with 10% FBS. Cells were diluted with full growth media and plated in a 96-well plate (15,000 cells in 100 ul media per well). The plate was incubated at 37° C. with 5% CO2 for 24 hours to allow cells to adhere. An 11-point 3-fold serial dilution of the compounds was made in DMSO then diluted in media in an intermediate plate. Compounds were transferred from the intermediate plate to the cell plate with the top dose at a final concentration of 10 uM in the well. Final DMSO concentration was kept at or below 0.25%. The cell plate was returned to the incubator at 37° C. with 5% CO2 for an additional 24 hours.
(§3) The K562 cell line was cultured in IMDM with 10% FBS. For K562, cells were diluted with full growth media and plated in either a 96-well plate (50,000 cells in 50 uL media per well) or a 384-well plate (8,000-40,000 cells in 45 uL media per well). An 11-point 3-fold serial dilution of the compounds were made in DMSO then diluted in media in an intermediate plate. Compound was transferred from the intermediate plate to the cell plate with the top dose at a final concentration of 10 uM in the well. Final DMSO concentration was kept at or below 0.25%. Final volume was 100 uL for 96-well plate and 50 uL for 384-well plate. The cell plate was then placed in an incubator at 37° C. with 5% CO2 for 24 hours.
(§4) The cells were then gently washed with 50 uL-100 uL cold PBS before proceeding to addition of lysis buffer. 30 uL-50 μL of room temperature lysis buffer with DNAse I (and optionally RNAsin) was added to each well. Cells were shaken/mixed thoroughly at room temperature for 5-10 minutes for lysis to take place and then 3 uL-5 μL of room temperature stop solution was added and wells were shaken/mixed again. After 2-5 minutes, the cell lysate plate was transferred to ice for RT-qPCR reaction setup. The lysates could also be frozen at −80° C. for later use.
(§5) In some cases, a direct lysis buffer was used. An appropriate volume of 3× lysis buffer (10 mM Tris, 150 mM NaCl, 1.5%-2.5% Igepal and 0.1-1 U/uL RNAsin, pH 7.4) was directly added to either K562 or A673 cells in media and mixed by pipetting 3 times. The plates were then incubated at room temperature with shaking/rocking for 20-50 minutes to allow for lysis to take place. After this time, the cell lysate plate was transferred to ice to set up for the RT-qPCR reactions. The lysates could also be frozen at −80° C. for later use.
(§6) To set up 10 uL RT-qPCR reactions, cell lysates were transferred to 384-well qPCR plates containing the master mix according to the table below. The plates were sealed, gently vortexed, and spun down before the run. The volumes were adjusted accordingly in some instances where the reaction was carried in 20 μL. The table below summarizes the components of the RT-qPCR reactions:
(§7) The RT-qPCR reaction was performed using a QuantStudio (ThermoFisher) under the following fast cycling conditions. […]

[2] = tested on: HTT; experiment: Splicing RT-qPCR assay, HTT mRNA canonical junction (CJ) and alternative junction (AJ); details: Homo sapiens; for AC50: increase in AJ mRNA
Protocol: as §1, §2, §3, §4, §5, §6, §7

[3] = tested on: SMN2; experiment: Splicing RT-qPCR panel, SMN2 canonical junction (CJ) mRNA; details: Homo sapiens, read-out: SMN2 IC50 (decrease in CJ mRNA levels)
Protocol: as §1, §2, §3, §4, §5, §6, §7

[4] = tested on: Target C; experiment: Splicing RT-qPCR panel, Target C canonical junction (CJ) mRNA; details: Homo sapiens, read-out: Target C IC50 (decrease in CJ mRNA levels)
Protocol: as §1, §2, §3, §4, §5, §6, §7

[5] = tested on: HTT; experiment: HiBiT protein abundance assay, HTT; details: Homo sapiens, K562, 24 h, Table 13B, modified K562 cells
Protocol: (§8) Compounds described herein were used to screen for effects on quantitative protein abundance using a HiBit assay system (Promega). Quantitative protein abundance was determined by measuring the protein levels of HiBit-tagged protein targets expressed in cell culture via luminescence using the Nano-Glo HiBiT Lytic Detection System, which uses a split complementation assay format to reconstitute NanoBiT enzyme to generate a luminescent signal. A protein abundance assay was developed such that endogenous protein targets could be modified with the HiBiT peptide tag and their abundance could be assessed after compound treatment. Briefly, K562 cell lines containing a HiBiT-modification were treated with various compounds described herein (e.g., compounds of Formulas (I), (II), or (III)). After treatment for 24 hours, the protein abundance of a specific target was determined by measuring luminescence.
(§9) Cells were maintained in IMIDM with 10% FBS. Before the assay, cells were diluted with […] growth media (IMIDM+[…] media) and were seeded in a 384-well plate at a density of 10000 cells/well (for each cell line listed in Table 12). Each compound was prepared as a 10-point 3-fold serial dilution in DMSO with the top dose at a final concentration of 10 μM in the well. Unmodified K562 cells were added at the previously specified density with DMSO to serve as an assay baseline and positive control (PC) and DMSO only with the respective modified cell lines was added to the negative control (NC) columns. Final DMSO concentration was kept at or below 0.25%. Treated cell plates were placed in an incubator at 37° C. with 5% CO2 for 24 hours. After 24 hours, 25 μL of Complete HiBit Lytic reagent was added to each well at room temperature (e.g. one plate requiring 10 mL Lytic Buffer, 100 μL LgBiT Protein, 200 μL Lytic Substrate), shaken for 5 minutes at 600 RPM, then left to sit for 10 minutes for signal to stabilize before reading on a Spark Cyto plate reader (Tecan) with a 500 ms measurement time.
(§10) To determine compound effects on protein abundance of each target in Table 12, the percent response for each respective cell line was calculated at each compound concentration as follows:
(§11) For the normalized response at each concentration, a four-parameter logistical regression was fit to the data and the response was interpolated at the 50% value to determine a concentration for protein abundance at 50% (IC50) the untreated control.

[6] = tested on: MYB; experiment: HiBiT protein abundance assay, MYB; details: Homo sapiens, K562, 24 h, Table 13B, modified K562 cells
Protocol: as §8, §9, §10, §11

[7] = tested on: Target C; experiment: HiBiT protein abundance assay, Target C; details: Homo sapiens, K562, 24 h, Table 13B, modified K562 cells
Protocol: • Promega Nano-Glo HiBiT Lytic Detection System (cat #N3030) • Coming 384-well TC-treated microplates (cat #3570) • Synthego Engineered Cells Knock-In Clones
as §9, §10, §11

[8] = 24 h, decrease in CJ mRNA, A673 or K562 cells, 24 hours treatment, RT-qPCR, read-out: MYB CJ IC50
[9] = 24 h, A673 or K562 cells, 24 hours treatment, RT-qPCR
[10] = RT-qPCR panel, canonical junction mRNA, compound concentration having 50% response in CJ decrease, read-out: MYB IC50 (decrease in CJ mRNA levels)
[11] = RT-qPCR panel, canonical junction mRNA, compound concentration having 50% response in CJ decrease, read-out: HTT IC50 (decrease in CJ mRNA levels)
[12] = RT-qPCR panel, canonical junction mRNA, compound concentration having 50% response in CJ decrease
[13] = gene panel, CJ qPCR, protocol of Example 142, read-out: MYB IC50 (decrease in CJ mRNA levels)
[14] = gene panel, CJ qPCR, protocol of Example 142

| SMILES | IC50 [1, 8] | AC50 [1, 9] | IC50 [1, 10] | IC50 ([2]; 24 h, decrease in CJ mRNA, A673 or K562 cells, 24 hours treatment, RT-qPCR, read-out: HTT CJ IC50) | AC50 [2, 9] | IC50 [2, 11] | IC50 [3, 12] | IC50 [4, 12] | IC50 [1, 13] | IC50 [5] | IC50 [6] | IC50 [7] | IC50 [4, 14] | IC50 ([2]; gene panel, CJ qPCR, protocol of Example 142, read-out: HTT IC50 (decrease in CJ mRNA levels)) | IC50 [3, 14] |
| --- | --- | --- | --- | --- | --- | --- | --- | --- | --- | --- | --- | --- | --- | --- | --- |
| CN(c1ccc(-c2ccc(-n3cccn3)c3cn[nH]c23)nn1)C1CC(C)(C)NC(C)(C)C1 [Compound 150] | 100 to 1000 nM | 100 to 1000 nM | 100 to 1000 nM | 100 to 1000 nM | 1000 to 10000 nM | 100 to 1000 nM | 100 to 1000 nM |  |  |  |  |  |  |  |  |
| CN(c1cnc(-c2cc(F)c(-c3cnn(C)c3)c3cn[nH]c23)nn1)[C@@H]1C[C@H]2CC[C@@H](C1)N2 [Compound 290] | 1000 to 10000 nM | 100 to 1000 nM | 1000 to 10000 nM |  | < 100 nM | < 100 nM | 100 to 1000 nM | 100 to 1000 nM |  |  |  |  |  |  |  |
| c1cnn(-c2ccc(-c3ccc(O[C@@H]4C[C@H]5CC[C@@H](C4)N5)nn3)c3cn[nH]c23)c1 [Compound 308] | < 100 nM | < 100 nM | < 100 nM |  | < 100 nM | < 100 nM | < 100 nM | < 100 nM |  |  |  |  |  |  |  |
| CN(c1ccc(-c2ccc(-n3cccn3)c3[nH]ncc23)nn1)[C@@H]1C[C@H]2CC[C@@H](C1)N2 [Compound 409] | 100 to 1000 nM | 100 to 1000 nM | 100 to 1000 nM |  | < 100 nM | < 100 nM | < 100 nM | < 100 nM |  |  |  |  |  |  |  |
| C[C@@H]1C[C@H](N(C)c2ccc(-c3ccc(-c4cn[nH]c4)c(=O)[nH]3)nn2)CCN1 [Compound 901] |  |  |  |  |  |  |  |  | > 10000 nM | > 10000 nM | > 10000 nM | > 10000 nM |  |  |  |
| C[C@H]1C[C@@H](N(C)c2ccc(-c3ccc(-n4cccn4)c(=O)[nH]3)nn2)CCN1 [Compound 903] |  |  |  |  |  |  |  |  | > 10000 nM | > 10000 nM | > 10000 nM | > 10000 nM | > 10000 nM |  |  |
| COc1nc(-c2ccc(N(C)[C@@H]3CCN[C@H](C)C3)nn2)ccc1-c1cn[nH]c1 [Compound 909] |  |  |  |  |  |  |  |  | 1000 to 10000 nM | 1000 to 10000 nM | 1000 to 10000 nM | 1000 to 10000 nM |  | 1000 to 10000 nM | 100 to 1000 nM |
